# [invAb] = inverted abasic unit; m = 2'-O-methyl; r = 2'-OH (RNA); f = 2'-fluoro
# Legend:
# ASK1 mRNA [1] = assay: ASK1 mRNA knock-down by siNA in human A549 cells (RNAiMax transfection, Taqman RT-PCR); assay type: cell-based; conditions: 10 nM siNA, 24 hrs post-transfection, vs non-targeting control, GAPDH-normalized, mean ± S.D., two experiments
# Protocol: A549 (human; ATCC cat #CCL-185): Cells were cultured at 37° C. in the presence of 5% CO2 and grown in Ham's F12K medium with 2 mM L-glutamine adjusted to contain 1.5 g/L sodium bicarbonate and supplemented with fetal bovine serum at a final concentration of 10%, 100 μg/mL of streptomycin, and 100 U/mL penicillin.
# (§1) Cells were plated in all wells of a tissue-culture treated, 96-well plate at a final count of 5000 cells/well (A549 cell line) and 3,500 cells/well (Hepal-6 cell line) in 100 μL of the appropriate culture media. The cells were cultured for 24 hours after plating at 37° C. in the presence of 5% CO2.
# (§2) After 24 hours, complexes containing siNA and RNAiMax were created as follows: A solution of RNAiMax diluted 33-fold in OPTI-MEM was prepared. In parallel, solutions of the siNAs for testing were prepared to a final concentration of 120 nM in OPTI-MEM. After incubation of RNAiMax/OPTI-MEM solution at room temperature for 5 min, an equal volume of the siRNA solution and the RNAiMax solution were added together for each of the siNAs.
# (§3) This solution was incubated at room temperature for 20 minutes. After incubation, 20 uL of the solution was added to each of the relevant wells. The final concentration of siNA in each well was 10 nM and the final volume of RNAiMax in each well was 0.3 ul.
# (§4) The time of incubation with the RNAiMax-siNA complexes was 24 hours and there was no change in media between transfection and harvesting, unless otherwise indicated.
# (§5) RNA was extracted from a 96-well plate using the TaqMan® Gene Expression Cells-to-CT™ Kit (Cat #4399002) with a modified protocol. Briefly, a 60 uL (1 plate) or 110 uL (2 plates) of the Lysis Solution with DNase I was dispensed into each well of the Lysis Buffer Plate (twin.tec full skirt plate). The lysis buffer and stop plates were stored at 4° C. until the cells were washed.
# (§6) The plate was spun at 1100 rpm for 5 minutes. The culture medium was aspirated and discarded from the wells of the culture plate. The lysis was performed automatically using a BioMek FX instrument and method. After the Biomek method was completed, the lysis plate was incubated for 2 min. at room temperature. The lysis plate can be stored for 2 hours at 4° C., or at −20° C. or −80° C. for two months.
# (§7) Each well of the reverse transcription plate required 10 uL of 2× reverse transcriptase Buffer, 1 uL of 20× reverse transcription enzyme and 2 uL of nuclease-free water. The reverse transcription master mix was prepared by mixing 2× reverse transcription buffer, 20× reverse transcription enzyme mix, and nuclease-free water. 13 uL of the reverse transcription master mix was dispensed into each well of the reverse transcription plate (semi-skirted). A separate reverse transcription plate was prepared for each cell plate. The plate was loaded onto a Biomek NX or Biomek FX Dual-96 and the Biomek method was run. The program is programmed to automatically added 7 uL of lysate from the cell lysis procedure described above into each well of the reverse transcription plate. The plate is sealed and spun on a centrifuge (1000 rpm for 30 seconds) to settle the contents to the bottom of the reverse transcription plate. The plate is placed in a thermocycler at 37° C. for 60 min, 95° C. for 5 min, and 4° C. until the plate is removed from the thermocycler. Upon removal, if not used immediately, the plate was frozen at −20° C.
# (§8) A series of probes and primers were used to detect the various mRNA transcripts of the genes of ASK1, ASK2, and GAPDH in human cell lines and ASK1 and GAPDH in mouse cell lines. All Taqman probes and primers for the experiments were supplied as pre-validated sets by ABI (see Table 2).
# (§9) The assays were performed on an ABI 7900 instrument, according to the manufacturer's instructions. A TaqMan Gene Expression Master Mix (provided in the Cells-to-CT™, Applied Biosystems, Cat #4399002) was used. […]
# ASK1 mRNA [2] = assay: ASK1 mRNA knock-down by siNA in mouse Hepa1-6 cells (RNAiMax transfection, Taqman RT-PCR); assay type: cell-based; conditions: 10 nM siNA, 24 hrs post-transfection, vs non-targeting control, GAPDH-normalized, mean ± S.D., two experiments
# Protocol: Hepal-6 (murine; ATCC cat #CRL-1830): Cells were cultured at 37° C. in the presence of 5% CO2 and grown in Dulbecco's modified Eagle's medium (DMEM) with 4 mM L-glutamine adjusted to contain 1.5 g/L sodium bicarbonate and 4.5 g/L glucose and supplemented with 10% of fetal bovine serum, 100 μg/mL of streptomycin, and 100 U/mL penicillin.
# as §1, §2, §3, §4, §5, §6, §7, §8, §9
substance,measurement,setting,value
"25382-DC: siNA duplex, sense B ccAGAAcuAAGGccAcAuu TTB, antisense AAUGuGGccuuAGuucuGGUU (SEQ ID NO: 45/46), human ASK1 target site 3875 (sense CCAGAACUAAGGCCACAUUTT; antisense AAUGUGGCCUUAGUUCUGGUU; chemistry not fully specified)",% KD Human,ASK1 mRNA [1],20 ± 4%
same,% KD Mouse,ASK1 mRNA [2],−26 ± 10%
"25390-DC: siNA duplex, sense B GGcuGAAGAuuAuAcAcuA TTB, antisense UAGuGuAuAAucuucAGccUU (SEQ ID NO: 61/62), human ASK1 target site 4354 (sense GGCUGAAGAUUAUACACUATT; antisense UAGUGUAUAAUCUUCAGCCUU; chemistry not fully specified)",% KD Human,ASK1 mRNA [1],93 ± 1%
same,% KD Mouse,ASK1 mRNA [2],−18 ± 14%
"25393-DC: siNA duplex, sense B GGuucAAAAAGGcAuuuGA TTB, antisense UCAAAuGccuuuuuGAAccUU (SEQ ID NO: 67/68), human ASK1 target site 1614 (sense GGUUCAAAAAGGCAUUUGATT; antisense UCAAAUGCCUUUUUGAACCUU; chemistry not fully specified)",% KD Human,ASK1 mRNA [1],88 ± 5%
same,% KD Mouse,ASK1 mRNA [2],77 ± 2%
"25381-DC: siNA duplex, sense B GcGAGGcccuGcAGAGcuu TTB, antisense AAGcucuGcAGGGccucGcUU (SEQ ID NO: 43/44), human ASK1 target site 690 (sense GCGAGGCCCUGCAGAGCUUTT; antisense AAGCUCUGCAGGGCCUCGCUU; chemistry not fully specified)",% KD Human,ASK1 mRNA [1],70 ± 2%
same,% KD Mouse,ASK1 mRNA [2],45 ± 2%
"25401-DC: siNA duplex, sense B uccuGGucGAGGccAcAAA TTB, antisense UUUGuGGccucGAccAGGAUU (SEQ ID NO: 83/84), human ASK1 target site 1995 (sense UCCUGGUCGAGGCCACAAATT; antisense UUUGUGGCCUCGACCAGGAUU; sense: DNA at AGT, 2'-fluoro at CU, [invAb] at 5' end, 3' end, backbone not given here; antisense: sugars from the 5' end rrrmfmmffffmmffmmmmmm, backbone not given here)",% KD Human,ASK1 mRNA [1],10 ± 16%
same,% KD Mouse,ASK1 mRNA [2],21 ± 0%
"25391-DC: siNA duplex, sense B cAGAGGccAAGGcAuucAu TTB, antisense AUGAAuGccuuGGccucuGUU (SEQ ID NO: 63/64), human ASK1 target site 3087 (sense CAGAGGCCAAGGCAUUCAUTT; antisense AUGAAUGCCUUGGCCUCUGUU; chemistry not fully specified)",% KD Human,ASK1 mRNA [1],11 ± 38%
same,% KD Mouse,ASK1 mRNA [2],−3 ± 4%
"25394-DC: siNA duplex, sense B uucGGAAucAuAAcAucAA TTB, antisense UUGAuGuuAuGAuuccGAAUU (SEQ ID NO: 69/70), human ASK1 target site 3786 (sense UUCGGAAUCAUAACAUCAATT; antisense UUGAUGUUAUGAUUCCGAAUU; chemistry not fully specified)",% KD Human,ASK1 mRNA [1],76 ± 8%
same,% KD Mouse,ASK1 mRNA [2],60 ± 6%
"25398-DC: siNA duplex, sense B GuGAcAGcAGcuucAuGAA TTB, antisense UUCAuGAAGcuGcuGucAcUU (SEQ ID NO: 77/78), human ASK1 target site 1038 (sense GUGACAGCAGCUUCAUGAATT; antisense UUCAUGAAGCUGCUGUCACUU; sense: DNA at AGT, 2'-fluoro at CU, [invAb] at 5' end, 3' end, backbone not given here; antisense: sugars from the 5' end rrrmfmmmmffmffmffmfmm, backbone not given here)",% KD Human,ASK1 mRNA [1],38 ± 6%
same,% KD Mouse,ASK1 mRNA [2],51 ± 2%
"25375-DC: siNA duplex, sense B GGAuGAAAAuAGAAAccAA TTB, antisense UUGGuuucuAuuuucAuccUU (SEQ ID NO: 31/32), human ASK1 target site 4101 (sense GGAUGAAAAUAGAAACCAATT; antisense UUGGUUUCUAUUUUCAUCCUU; chemistry not fully specified)",% KD Human,ASK1 mRNA [1],76 ± 6%
same,% KD Mouse,ASK1 mRNA [2],6 ± 13%
"25380-DC: siNA duplex, sense B GAuGGAAAuucuAAAAAuu TTB, antisense AAUuuuuAGAAuuuccAuCUU (SEQ ID NO: 41/42), human ASK1 target site 4508 (sense GAUGGAAAUUCUAAAAAUUTT; antisense AAUUUUUAGAAUUUCCAUCUU; chemistry not fully specified)",% KD Human,ASK1 mRNA [1],91 ± 0%
same,% KD Mouse,ASK1 mRNA [2],−7 ± 11%
"25392-DC: siNA duplex, sense B cAcuGAccGAAAAAucAuA TTB, antisense UAUGAuuuuucGGucAGuGUU (SEQ ID NO: 65/66), human ASK1 target site 3661 (sense CACUGACCGAAAAAUCAUATT; antisense UAUGAUUUUUCGGUCAGUGUU; chemistry not fully specified)",% KD Human,ASK1 mRNA [1],67 ± 6%
same,% KD Mouse,ASK1 mRNA [2],63 ± 1%
"25377-DC: siNA duplex, sense B GGAAGAccAAGAcAAAAuu TTB, antisense AAUuuuGucuuGGucuuccUU (SEQ ID NO: 35/36), human ASK1 target site 3538 (sense GGAAGACCAAGACAAAAUUTT; antisense AAUUUUGUCUUGGUCUUCCUU; chemistry not fully specified)",% KD Human,ASK1 mRNA [1],80 ± 3%
same,% KD Mouse,ASK1 mRNA [2],10 ± 2%
"25396-DC: siNA duplex, sense B cAAGcAAAAAGAAAAAGAc TTB, antisense GUCuuuuucuuuuuGcuuGUU (SEQ ID NO: 73/74), human ASK1 target site 3183 (sense CAAGCAAAAAGAAAAAGACTT; antisense GUCUUUUUCUUUUUGCUUGUU; chemistry not fully specified)",% KD Human,ASK1 mRNA [1],90 ± 1%
same,% KD Mouse,ASK1 mRNA [2],75 ± 1%
"25395-DC: siNA duplex, sense B cuGAuGAcAAGAAAGGuAu TTB, antisense AUAccuuucuuGucAucAGUU (SEQ ID NO: 71/72), human ASK1 target site 2139 (sense CUGAUGACAAGAAAGGUAUTT; antisense AUACCUUUCUUGUCAUCAGUU; chemistry not fully specified)",% KD Human,ASK1 mRNA [1],32 ± 12%
same,% KD Mouse,ASK1 mRNA [2],6 ± 15%
"25383-DC: siNA duplex, sense B cuGcuGAucAAGAAGAcuu TTB, antisense AAGUCuucuuGAucAGcAGUU (SEQ ID NO: 47/48), human ASK1 target site 3918 (sense CUGCUGAUCAAGAAGACUUTT; antisense AAGUCUUCUUGAUCAGCAGUU; chemistry not fully specified)",% KD Human,ASK1 mRNA [1],68 ± 7%
same,% KD Mouse,ASK1 mRNA [2],1 ± 3%
"25378-DC: siNA duplex, sense B cGGAAGAccAAGAcAAAAu TTB, antisense AUUuuGucuuGGucuuccGUU (SEQ ID NO: 37/38), human ASK1 target site 3537 (sense CGGAAGACCAAGACAAAAUTT; antisense AUUUUGUCUUGGUCUUCCGUU; chemistry not fully specified)",% KD Human,ASK1 mRNA [1],79 ± 5%
same,% KD Mouse,ASK1 mRNA [2],34 ± 2%

# — US20120010272A1, “RNA Interference Mediated Inhibition of Apoptosis Signal-Regulating Kinase 1 (ASK1) Gene Expression Using Short Interfering Nucleic Acid (siNA)” (Merck Sharp & Dohme Corp., priority 2009, published 2012)
